Earlier results on one compound are cited in article PMC10289903 (Investigational New Drugs, 2023).

Series [1] deals with platinum-resistant or platinum-refractory recurrent ovarian cancer. As to conditions: adavosertib 175 mg qd days 1, 2, 8, 9, 15, 16 of a 28-day cycle with gemcitabine; 95% CI 3.6–6.4; cited from earlier work.
Series [2] deals with platinum-resistant ovarian cancer. As to conditions: adavosertib with carboplatin; cited from earlier work.
Series [3] deals with recurrent ovarian cancer with progressive disease while receiving PARPi. As to conditions: cited from earlier work.

SMILES strings stand for the structures. Where two headings read alike, the source gives them in different places.

On to `C=CCn1c(=O)c2cnc(Nc3ccc(N4CCN(C)CC4)cc3)nc2n1-c1cccc(C(C)(C)O)n1` [adavosertib, Adavosertib], for which, in series [1], the PFS is on record as 4.6 months. Further, in series [2], the Response rate is 66.7%. Further, the ORR in series [3] (adavosertib alone, 90% CI 12–38) was 23%; in series [3] (combination therapy with PARP inhibitor, 90% CI 16–44), 29%.
